Measured values: patent US7989467B2, “Use of indole-derived compounds for the preparation of a medicament that can be used to treat diseases related to the splicing process” (Centre National de la Recherche Scientifique (CNRS), priority 2003, dated 2011)

Assays:
M3S1 pre-messenger = experiment: In vitro splicing of M3S1 pre-messenger RNA (dependent on ESE recognized by SR ASF/SF2 protein); format: biochemical, human; conditions: for M3S1 splicing inhibition: 10 μM, FIG. 2; for effect on M3S1 splicing: concentration not given
Description: The compounds presented in Tables 1 and 2 below were tested in a concentration range of 1 μM, 10 μM and 100 μM, and were selected initially on the basis of their capacity to inhibit, in vitro, the splicing of two types of model pre-mRNAs.
The second type of M3S1 pre-messenger is derived from the human […] gene (Labourier, E. et al. (1999), Antagonism between RSF1 and SR proteins for both splice-site recognition in vitro and Drosophila development. Genes Dev. 13, 740-753) and its splicing is strictly dependent on an auxiliary ESE sequence recognized specifically by the SR ASF/SF2 protein. Conditions for the transcription, splicing and analysis of this pre-messenger's products are identical to those used for the MINX pre-messenger.

[1] = system: M3S1 transcript splicing complexes; experiment: In vitro splicing-complex formation on M3S1 transcript; format: biochemical, human; conditions: 50 μM; 30 minutes of incubation; FIG. 3
Excerpt: The activity of the products has also been tested in splicing-complex formation reactions in vitro (FIG. 3) as described in Pilch B. et al. (Specific inhibition of serine- and arginine-rich splicing factors, phosphorylation, spliceosome assembly, and splicing by the antitumor drug NB-506. Cancer Res. 2001. 61, 6876-6884).
M3S1 transcript splicing reactions in the presence of various compounds according to the invention performed under the same conditions as those described for FIG. 1 are stopped after 30 minutes of incubation by the addition of heparin and glycerol at a final concentration of 1 mg/ml and 15%, respectively.

[2] = system: M3S1-PDH pre-messenger RNA; experiment: Splicing of M3S1-PDH pre-messenger RNA (pyruvate dehydrogenase E1α subunit, mutated intron 7); format: biochemical, human; conditions: for M3S1-PDH splicing: FIG. 4B
Excerpt: In this substrate the sequences corresponding to exon 7-intron 7-exon 8 of the gene coding for the pyruvate dehydrogenase E1α subunit (PDH E1α) are inserted downstream from the M3S1 sequence (M3S1-PDH, see FIG. 4A). Intron 7 of this transcript contains a point mutation which creates a high affinity SR hSC35 protein binding site. This mutation, which causes the loss of PDH E1α expression in patients suffering from Leigh syndrome (an encephalopathy in children), leads to the appearance of a cryptic site 46 nucleotides downstream from the authentic 5′ splicing site (FIG. 4A). This substrate, likely to give rise to two products, one with and one without the 46 nucleotides of PDH intron 7, is ideal for determining the specificity of the compounds with respect to the various ESE sequences present within the same transcript.
Compound C7 is thus an excellent inhibitor of defective splicing that is dependent on hSC35 ESE, but not on authentic splicing. This compound can thus be envisaged for treating patients suffering from this encephalopathy.

GFP-ESE transgene = experiment: ESE-dependent splicing of GFP-ESE transgene mRNA in HeLa cells (RT-PCR); format: cell-based, human; conditions: 1 μM per FIG. 5 legend
Excerpt: In order to test the efficiency of indole derivatives ex vivo, […] HeLa cell lines were established stably expressing a transgene corresponding to GFP whose sequence was interrupted by an ESE sequence flanked by two identical introns of the human […] gene described in Example 1 (see FIG. 5A).
To detect the messenger RNAs arising from the splicing of this gene, the RT-PCR technique was used with primers in the GFP sequence on each side of the ESE and the PCR products were analyzed on agarose gel.
In almost all the lines established, a single fragment of 250 base pairs (bp) was amplified by PCR (FIG. 5A, lanes 2 and 3) and it corresponds to an RNA messenger which included the ESE between the two GFP sequences.

SRp55 = target: T1, SRp55 (Homo sapiens, UniProt Q13247); experiment: In vitro splicing results, Table 3: SRp55; format: biochemical; conditions: summary of Table 3
T1 sequence (Q13247 1-344): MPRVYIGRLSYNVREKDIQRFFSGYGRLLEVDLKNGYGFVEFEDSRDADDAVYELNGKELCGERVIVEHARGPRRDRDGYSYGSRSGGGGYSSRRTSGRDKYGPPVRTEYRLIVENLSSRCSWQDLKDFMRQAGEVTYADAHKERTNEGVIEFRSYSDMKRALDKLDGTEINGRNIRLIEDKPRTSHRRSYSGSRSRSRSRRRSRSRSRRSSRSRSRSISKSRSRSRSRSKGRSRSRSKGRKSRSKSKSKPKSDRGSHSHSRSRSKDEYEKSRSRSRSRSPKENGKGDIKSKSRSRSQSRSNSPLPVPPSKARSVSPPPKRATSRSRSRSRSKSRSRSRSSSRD

HIV = experiment: Inhibition of HIV multiplication in PMA-stimulated U1 cells (RT-PCR of viral transcripts); format: cell-based; conditions: 2.5 μM; 24 h; U1 cells treated with 50 nM PMA; FIG. 6
Excerpt: To this end, human […] cell line U1, which is chronically infected by HIV (Folks et al., 1988. Characterization of a promonocyte clone chronically infected with HIV and inducible by 13-phorbol-12-myristate acetate. J. Immunol., 140: 1117-1122) and which produces large quantities of virus after stimulation by PMA (phorbol myristate acetate), was used. As a result, this cell line constitutes an excellent model to mimic the transition between the latency phase and the viral production phase observed in patients infected by HIV.
The results of this experiment are presented in FIG. 6 in which U1 cells (5×10^5) were treated with 50 nM of PMA in the absence (FIG. 6, lane 1) or in the presence of 2.5 μM of compounds C47, C97, C58, C57, C92, C91, C90, C83, C73, C34, C51, C45, C13, C10, C44, C6, C7, C41, C50, C32, C2, C1, C29, C35 and C99 (FIG. 6, lanes 3-27, respectively). After 24 h of treatment, the virus's transcripts were amplified by RT-PCR using specific VIH, BSS and SJ4.7A primers (Jacquenet et al., 2001, A second exon splicing silencer within human immunodeficiency virus type 1 tat exon 2 represses splicing of Tat mRNA and binds protein hnRNP. H. J. Biol. Chem. 276: 40464-75) and a radioactive tracer (α-32P) CTP.

## Cc1c2ccnc(Cl)c2cc2c3cn(C)ccc-3nc12 [C3, 10-chloro-2,6-dimethyl-2H-pyrido[3′,4′:4,5]pyrrolo[2,3-g]isoquinoline]
M3S1 pre-messenger
  M3S1 splicing inhibition: M3S1 splicing inhibition
[1]
  inhibition of the formation of splicing complexes A and B on M3S1: inhibition of the formation of splicing complexes A and B

## CC(=O)Oc1nccc2c(C)c3[nH]c4ccc(O)cc4c3cc12 [C4, 9-hydroxy-5-methyl-6H-pyrido[4,3-b]carbazol-1-yl acetic acid ester]
M3S1 pre-messenger
  effect on M3S1 splicing: inactive on M3S1
[2]
  M3S1-PDH splicing: has no effect

## COc1ccc2[nH]c3c(C)c4ccncc4c(NCCCN(C)C)c3c2c1 [C7, N′(9-methoxy-5-methyl-6H-pyrido[4,3-b]carbazol-11-yl)-N,N-dimethyl-propane-1,3-diamine]
M3S1 pre-messenger
  effect on M3S1 splicing: do not modify M3S1 splicing
[2]; FIG. 4B lane 4
  RNA species from normal PDH splicing: has no effect
  formation of RNA species arising from PDH splicing that include the 46 nucleotides of intron 7 (defective splicing dependent on hSC35 ESE): blocks the formation

## CCN(CC)CCCNc1nccc2c(C)c3[nH]c4ccc(OC)cc4c3cc12 [C8, N,N-diethyl-N′-(9-methoxy-5-methyl-6H-pyrido[4,3-b]carbazol-1-yl)-propane-1,3-diamine]
[2]
  M3S1-PDH splicing: Inhibition of M3S1-PDH

## COc1ccc2[nH]c3c(C)c4ccnc(NCCCN5CCN(CCCN)CC5)c4cc3c2c1 [C14]
M3S1 pre-messenger
  M3S1 splicing inhibition: M3S1 splicing inhibition
[1]
  inhibition of the formation of splicing complexes A and B on M3S1: inhibition of the formation of splicing complexes A and B
GFP-ESE transgene
  splicing profile of the GFP-ESE transgene (RT-PCR fragment without ESE): revealed a fragment of 194 bp

## CCN(CC)CCC(C)Nc1nccc2c(C)c3c(cc12)c1cnccc1n3C (stereo not shown) [C28, N-3-(5,6-dimethyl-5H-pyrido[3′,4′:4,5]pyrrolo[2,3-g]isoquinolin-10-yl)-N,N-1-diethyl-butane-1,3-diamine]
GFP-ESE transgene
  splicing profile of the GFP-ESE transgene (RT-PCR fragment without ESE): revealed a fragment of 194 bp

## CCN(CC)CCNc1nccc2c(C)c3c(cc12)c1cc(OC)ccc1n3C [C50, N,N-diethyl-N′-(9-methoxy-5,6-dimethyl-6H-pyrido[4,3-b]carbazol-1-yl)-ethane-1,2-diamine]
SRp55
  inhibit the activity of the SRp55 protein specifically: inhibit the activity of the SRp55 protein specifically
HIV
  inhibition of HIV multiplication (amplification of viral transcripts): excellent inhibitors of HIV multiplication

## CNCCCNc1ncc(C)c2[nH]c3ccc4cc(OC)ccc4c3c12 [C57, N-(3-methoxy-8-methyl-7H-benzo[e]pyrido[4,3-b]indol-11-yl)-N′-methyl-propane-1,3-diamine]
SRp55
  inhibit the activity of the SRp55 protein specifically: inhibit the activity of the SRp55 protein specifically
HIV
  inhibition of HIV multiplication (amplification of viral transcripts): excellent inhibitors of HIV multiplication
